Results taken from patent US20040235722A1, “Epf receptor assays, compounds and therapeutic compositions” (priority 2001, published 2004).
Several values for one entry are separate records, joined by “and”; a condition that tells them apart may be missing. Equal values may be shown once. Read-outs that look alike come from different tables or passages of the source. Where no end group is shown, it is not given here.

Columns and labels:
[1] = molecular target: T1, GPCR RC56.3.1 (adenine receptor) (Rattus norvegicus, UniProt Q7TN49); assay: [3H]Adenine binding to RC56.1.3 transfected cells; details: tritiated adenine
T1 construct: expressed in transfected cells; host or cells: COS cells (membranes)
T1 sequence (Q7TN49 1-304): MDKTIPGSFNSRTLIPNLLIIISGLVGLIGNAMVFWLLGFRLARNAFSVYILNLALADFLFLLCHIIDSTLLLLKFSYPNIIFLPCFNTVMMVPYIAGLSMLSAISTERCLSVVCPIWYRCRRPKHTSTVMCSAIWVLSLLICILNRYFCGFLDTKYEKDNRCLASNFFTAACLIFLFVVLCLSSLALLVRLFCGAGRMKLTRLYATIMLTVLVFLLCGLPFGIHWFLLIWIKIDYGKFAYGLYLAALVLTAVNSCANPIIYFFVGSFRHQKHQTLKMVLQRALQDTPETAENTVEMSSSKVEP
Description: (§1) The membranes were prepared as total particulate fractions. The cell lines were cultured to 90% confluency on 145 mm petri dishes and treated with 5 mM sodium butyrate, 24 hours before collection. The culturing medium was removed and the cells were washed twice with ice-cold phosphate-buffered saline (PBS w/o Ca^2+ and Mg^2+), scraped from the plates in 50 mM Tris-HCl buffer, pH 7.4, and collected by centrifugation (10 minutes at 16,000 RPM at 4° C.). The cell pellet was re-suspended in hypotonic 5 mM Tris-HCl buffer, pH 7.4, and homogenized with an Ultra Turrax homogenizer. The homogenate was centrifuged at 18,000 RPM for 20 minutes at 4° C. The final pellet was re-suspended in 50 mM Tris-HCl buffer, pH 7.4 and stored in aliquots at −70° C. A protein determination was performed using the Bradford protein assay (Biorad) using bovine serum albumin (BSA) as standard.
(§2) [^3H]Adenine binding experiments were performed to characterize transiently transfected cell lines. Membranes were thawed on ice and diluted in 50 mM HEPES buffer, pH 7.4 supplemented with 10 mM MgCl2 and 1 mM EGTA. […] Samples were counted in a β-scintillation counter after at least 6 hours to permit the glass fiber filters to become uniformly translucent. […]
(§3) Specific binding was calculated as difference between counts in the presence and absence of 1 μM unlabeled adenine.

[2] = molecular target: T2, hDRR4 (Homo sapiens, UniProt Q96LB2); assay: FLIPR calcium assay, HEK293 cells transiently co-transfected with hDRR4 and Gα16; assay type: cell-based; parameters: The full length reading frame was inserted into the mammalian expression vector pcDNA3; expressed in transfected cells; host or cells: HEK293
T2 sequence (Q96LB2 whole entry): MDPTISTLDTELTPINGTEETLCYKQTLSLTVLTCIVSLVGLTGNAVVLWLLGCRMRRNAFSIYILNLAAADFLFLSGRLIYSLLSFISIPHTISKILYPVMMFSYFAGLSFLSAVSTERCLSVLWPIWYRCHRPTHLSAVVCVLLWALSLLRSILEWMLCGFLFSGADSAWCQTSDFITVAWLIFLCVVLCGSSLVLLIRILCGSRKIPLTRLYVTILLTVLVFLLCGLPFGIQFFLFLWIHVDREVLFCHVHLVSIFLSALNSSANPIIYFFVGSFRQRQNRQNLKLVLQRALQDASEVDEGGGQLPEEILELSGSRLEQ
Description: (§4) The hDRR4 expression plasmid or the hDRR7 expression plasmid was transiently co-transfected with a Gα16-pcDNA3 contruct using the FuGENE 6 reagent (Roche Molecular Biochemicals, Mannheim, Germany) into HEK293 cells. The cells were loaded with Fluo-4 (Molecular Probes, Eugene, Oreg., U.S.A.) according to the recommendations of the supplier. Subsequently the cells were assayed in the FLIPR instrument (Molecular Devices, Sunnyvale, Calif., U.S.A.) for Ca^2+ transients.
(§5) Activation of orphan GPCR hDRR4 (SEQ ID NO:2) by the hDRR binding fragment of EPF (SEQ ID NO:8) at a test concentration of 150 nM was measured in Hek293 cells co-transfected with Gα16-pcDNA. Relative fluorescence units (RFU) were determined by loading the cells with Fluo-4 (Molecular Probes, Eugene, Oreg., U.S.A.).
(§6) The hDRR4 expression plasmid or the hDRR7 expression plasmid was transiently co-transfected with a Gα16-pcDNA3 construct using the FuGENE 6 reagent (Roche Molecular Biochemicals, Mannheim, Germany) into HEK293 cells. The cells were loaded with Fluo4 (Molecular Probes, Eugene, Oreg., U.S.A.) according to the recommendations of the supplier. Subsequently the cells were assayed in the FLIPR instrument (Molecular Devices, Sunnyvale, Calif., U.S.A.) for Ca^2+ transients.
(§7) The purified peptides or dried tissue fractions were dissolved in calcium buffer and loaded onto regular multi-well 96 plates. Subsequently the cells were assayed in the FLIPR instrument (Molecular Devices, Sunnyvale, Calif., U.S.A.) for Ca^2+ transients. For the EPF-related peptides the following pEC50 values were determined;

[3] = molecular target: T2, hDRR4; assay: [3H]Adenine binding to membranes of hDRR4 transfected cells; details: tritiated adenine
Description: as §1, §2, §3

[4] = test system: Hek 293 cells only transfected with the Gα16-pcDNA expression vector; assay: FLIPR calcium assay, control cells without receptor; assay type: cell-based, human; details: test concentration 150 nM, no hDRR receptor (FIG. 3, FIG. 4)
Description: as §4, §5
(§8) Activation of orphan GPCR hDRR7 (SEQ ID NO:12) by the HDRR binding fragment of EPF (SEQ ID NO: 8) at a test concentration of 150 nM after transient co-transfection with Gα16-pcDNA into HEK293 cells. Relative fluorescence units (RFU) were determined by loading the cells with Fluo-4 (Molecular Probes, Eugene, Oreg., U.S.A.).

[5] = molecular target: T3, hDRR7 receptor (Homo sapiens, UniProt Q96LB1); assay: FLIPR calcium assay, HEK293 cells transiently co-transfected with hDRR7 and Gα16; assay type: cell-based; details: for EC50: MrgX2 taken as hDRR7, FLIPR Ca2+ transients (FIG. 10), read-out: MrgX2 (pEC50) (converted)
T3 construct: expressed in transfected cells; host or cells: HEK293
T3 sequence (Q96LB1 1-330): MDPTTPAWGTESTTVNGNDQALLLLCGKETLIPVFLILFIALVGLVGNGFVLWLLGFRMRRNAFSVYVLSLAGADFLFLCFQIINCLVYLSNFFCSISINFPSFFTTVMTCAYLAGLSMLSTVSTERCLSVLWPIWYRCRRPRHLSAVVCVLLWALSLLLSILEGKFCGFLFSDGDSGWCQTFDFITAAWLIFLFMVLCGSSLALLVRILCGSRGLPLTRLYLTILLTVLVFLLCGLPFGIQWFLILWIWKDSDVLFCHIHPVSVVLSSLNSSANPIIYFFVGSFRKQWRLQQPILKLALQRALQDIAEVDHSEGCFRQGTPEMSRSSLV
Description: as §4
The hDRR7 expression plasmid was transiently co-transfected with a Gα16-pcDNA3 contruct using the FuGENE 6 reagent (Roche Molecular Biochemicals, Mannheim, Germany) into HEK293 cells. The cells were loaded with Fluo-4 (Molecular Probes, Eugene, Oreg., U.S.A.) according to the recommendations of the supplier. Subsequently the cells were assayed in the FLIPR instrument (Molecular Devices, Sunnyvale, Calif., U.S.A.) for Ca^2+ transients.
as §8, §6, §7

[6] = molecular target: T2, hDRR4; assay: Stimulation of hDRR4 with angiotensin II and III (re-test of WO 99/32519); details: claimed in WO 99/32519; re-examined by present inventors
[7] = molecular target: T4, human Dorsal Root Receptor 7 (hDRR7) (human, UniProt Q96LB1 1-330); assay: cell-based or functional assay
T4 sequence: T3 sequence (Q96LB1 1-330)

[8] = molecular target: T5, human Dorsal Root Receptor 4 (hDRR4) (human, UniProt Q96LB2 1-322); assay: cell-based or functional assay
T5 sequence (Q96LB2 whole entry): as the sequence (Q96LB2 whole entry) above

[9] = molecular target: T4, human Dorsal Root Receptor 7 (hDRR7); assay: cell-based or functional assay; remark: listed apart in the source
[10] = molecular target: T5, human Dorsal Root Receptor 4 (hDRR4); assay: cell-based or functional assay; remark: listed apart in the source
[11] = MrgX1 = hDRR4, FLIPR Ca2+ transients (FIG. 9), read-out: MrgX1 (pEC50) (converted)

## Nc1ncnc2nc[nH]c12 [adenine]
[1]
  Specific adenine binding to RC56.1.3 transfected cells: clear specific adenine binding
[2]; HEK293 with and without co-transfection of chimeric G proteins or Gα16
  Specific response on hDRR4 in FLIPR-based cellular assay: no specific response
[3]
  Specific adenine binding to hDRR4: no specific adenine binding

## AFRKFLPLFDRVLVERSA [SEQ ID NO:8, AFRKFLPLFDRVLVERSA]
[4]
  Response of cells transfected with Gα16 only: did not response
[5]; test concentration 150 nM, Fluo-4 (FIG. 4)
  Activation of hDRR7 (relative fluorescence units): Activation
[2]; FLIPR calcium assay, different test concentrations (FIG. 7), read-out: EC50-value on hDRR4 receptor
  EC50: 10.6 to 12 nM and 12 nM
[2]; test concentration 150 nM, Fluo-4 (FIG. 3)
  Activation of hDRR4 (relative fluorescence units): Activation

## angiotensin II (DRVYIHPF; Angiotensin-2; UniProt P01019 25-32, looked up)
[6]
  Stimulation of hDRR4 by angiotensin (angiotensin receptor characterization): could not be confirmed

## LGQAFRKFLPLFDRVL [EPF 1-16, LGQAFRKFLPLFDRVL]
[5]
  EC50: 873 nM
[2]; [11]
  EC50: 15.1 nM

## angiotensin III
[6]
  Stimulation of hDRR4 by angiotensin (angiotensin receptor characterization): could not be confirmed

## LGQAFRKFLPLFDRVLVE [EPF 1-18, LGQAFRKFLPLFDRVLVE]
[5]
  EC50: 820 nM
[2]; [11]
  EC50: 99.3 nM

## LGQAFRKFLPLFDRVL [EPF 1-16 (LGQAFRKFLPLFDRVL, SEQ ID NO: 21)]
[7]
  pEC50, FLIPR Ca2+ transients: 6.06 pEC50
[8]
  pEC50, FLIPR Ca2+ transients: 7.82 pEC50

## AFRKFLPLFDRVLVERSA [hDRR binding fragment of EPF (SEQ ID NO:8)]
[9]
  EC50-value, FLIPR calcium assay: 354 nM
[10]
  EC50-value: 10.6 nM and 6 to 12 nM
  EC50-value, FLIPR calcium assay: 12 nM

## LGQAFRKFLPLFDRVLVE [EPF 1-18 (LGQAFRKFLPLFDRVLVE, SEQ ID NO: 19)]
[7]
  pEC50, FLIPR Ca2+ transients: 6.09 pEC50
[8]
  pEC50, FLIPR Ca2+ transients: 7 pEC50
